Measured values reported in patent publication US20160022810A1, “Method for Treating Cancers by Alternating Immunotherapeutics and Directly Oncolytic Therapeutics” (priority 2014, published 2016).

Key:
4T1 breast cancer cells [1] = assay: survival with single regimen, cyclophosphamide or CATS (FIG. 8); type: in vivo; details: 80 mg/kg ip weekly from Day 16; no mice survived beyond; control 37 days
Method: Thirty mice were orthotopically implanted with 5×10^4 4T1 breast cancer cells in their mammary fat pad on Day 0. On Day 16, mice were randomized into three cohorts of ten mice each to receive weekly doses of either carrier control (Brown line, Placebo, 25 ng iv), cyclophosphamide cytotoxic drug (CD) chemotherapy (Green line, CD, 80 mg/kg ip) or CATS™ immunotherapy (Purple line, 25 ng iv). Kaplan-Meier curves analyzing surviving mice in each cohort show no mice survived beyond 37 days in the control group, or 46 days in the CD group, while 4 of 10 mice were alive at day 62 in the CATS™ treatment group.

4T1 cells = assay: survival with CATS alternating with cyclophosphamide (FIG. 10); type: in vivo, mice; details: cyclophosphamide alone 80 mg/kg ip, two boluses over 48 hours from Day 20, then weekly
Method: This Kaplan-Meier graph plots survival of three groups of mice (10/cohort) implanted with 1×10^4 4T1 cells on Day 0 and initiated to treatment on Day 20 with two bolus doses over the first 48 hours, and thereafter once weekly of either placebo (blue, 50 ng IV), cyclophosphamide (Cy, orange, 80 mg/kg ip) or alternating therapy (CATS/Cy, green, 50 ng IV CATS™ boluses or every other week, alternating every other week with Cy 80 mg/kg). In this trial 100% of mice treated with CATS™ alternating therapy survived 75 days, at which time the trial was terminated.

4T1 breast cancer cells [2] = assay: visible lung metastases, CATS versus paclitaxel (FIG. 7); type: in vivo, BALB/c mice; details: two boluses separated by 2 days; 100 micrograms
From the text: This reflects into a much stronger anti-metastatic activity (FIG. 7) of CATS™ over paclitaxel, that translates to survival benefits. In this study, 40 BALB/c mice were orthotopically implanted in the mammary pad on Day 0 with 1×10^4 4T1 breast cancer cells. When tumor volume approximated 200 mm^3 (on Day 17), mice were randomly distributed into four cohorts of ten mice each. […] Mice were sacrificed when tumor diameter reached 14 mm (Day 30), at which time mice were euthanized, lungs removed, and visible lung metastases were quantitated by a second observer blinded to the treatment protocols. Floating bars depict maximum and minimum number of metastases each cohort, horizontal line indicates mean±SE.

Row | Structure (SMILES) | longest survival (4T1 breast cancer cells [1]) [days] | survival at Day 40 (4T1 cells) | tolerability of consolidation dosing (4T1 breast cancer cells [2])
1 | O=P1(N(CCCl)CCCl)NCCCO1 (stereo not drawn) [cyclophosphamide] | ≤ 46 | all of the mice receiving cyclophosphamide alone were dead | –
2 | CC(=O)O[C@H]1C(=O)[C@@]2(C)[C@H]([C@H](OC(=O)c3ccccc3)[C@]3(O)C[C@H](OC(=O)[C@H](O)[C@@H](NC(=O)c4ccccc4)c4ccccc4)C(C)=C1C3(C)C)[C@]1(OC(C)=O)CO[C@@H]1C[C@@H]2O [Taxol, paclitaxel] | – | – | toxic
